This is an account of results in ChEMBL document CHEMBL4184193, “Design, synthesis, and opioid activity of arodyn analogs cyclized by ring-closing metathesis involving Tyr(allyl)” (Bioorg Med Chem, 2018).

Where a SMILES comes first, the peptide text is derived from it. [ ]: non-standard residue; d: D form. Some results are limits rather than exact numbers.

Experiment [1] deals with Kappa-type opioid receptor (Rattus norvegicus) (UniProt P34975). Description: Antagonist activity at rat kappa opioid receptor expressed in CHO cell membranes assessed as inhibition of Dyn A-(1-13)NH2-induced [35S]GTPgammaS binding at 10 uM relative to control. The format is functional. (GTPγS is a poorly hydrolysed GTP analogue; its binding reports G protein activation.)
Sequence of Kappa-type opioid receptor (Rattus norvegicus) (P34975 whole entry): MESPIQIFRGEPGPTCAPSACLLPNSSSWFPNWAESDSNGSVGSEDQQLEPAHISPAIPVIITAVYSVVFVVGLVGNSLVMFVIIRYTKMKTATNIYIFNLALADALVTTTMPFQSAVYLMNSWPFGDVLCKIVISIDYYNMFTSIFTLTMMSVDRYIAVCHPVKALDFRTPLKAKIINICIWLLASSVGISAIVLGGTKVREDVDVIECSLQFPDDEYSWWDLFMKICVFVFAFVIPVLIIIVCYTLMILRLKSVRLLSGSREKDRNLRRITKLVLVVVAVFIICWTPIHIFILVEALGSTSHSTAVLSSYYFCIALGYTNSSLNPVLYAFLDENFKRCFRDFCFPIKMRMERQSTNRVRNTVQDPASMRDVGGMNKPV

For experiment [2] the target is unchanged. Description: Antagonist activity at rat kappa opioid receptor expressed in CHO cell membranes assessed as inhibition of Dyn A-(1-13)NH2-induced [35S]GTPgammaS binding by schild analysis. The format is functional.
Experiment [3] has as its target Delta-type opioid receptor (Rattus norvegicus, UniProt P33533). Description: Displacement of [3H]DPDPE from rat delta opioid receptor expressed in CHO cells after 90 mins by scintillation counting analysis. It counts as cell-based. A general note: Loss of bound radioactivity is the signal in a displacement assay; it reports binding, not function.

Sequence of Delta-type opioid receptor (P33533 whole entry): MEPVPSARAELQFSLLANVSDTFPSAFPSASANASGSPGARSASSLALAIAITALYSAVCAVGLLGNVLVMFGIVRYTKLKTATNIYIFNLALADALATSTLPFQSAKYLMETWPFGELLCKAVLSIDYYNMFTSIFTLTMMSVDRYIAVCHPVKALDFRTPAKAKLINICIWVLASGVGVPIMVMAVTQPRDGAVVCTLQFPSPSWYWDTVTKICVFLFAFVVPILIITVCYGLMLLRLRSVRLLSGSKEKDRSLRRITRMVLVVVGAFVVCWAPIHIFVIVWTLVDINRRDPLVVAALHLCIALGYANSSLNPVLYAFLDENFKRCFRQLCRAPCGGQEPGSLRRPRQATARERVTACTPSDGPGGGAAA

Broadly, the inhibition is the relative decrease from the control value, in per cent. Regarding `CC[C@H](C)[C@H](NC(=O)[C@H](CCCNC(=N)N)NC(=O)[C@@H]1C/C=C/COc2ccc(cc2)C[C@H](NC(=O)[C@H](Cc2ccccc2)NC(=O)[C@H](Cc2ccccc2)NC(C)=O)C(=O)N[C@@H](CCCNC(=N)N)C(=O)N1)C(=O)N[C@@H](CCCNC(=N)N)C(=O)N1CCC[C@H]1C(=O)N[C@@H](CCCCN)C(N)=O`, in experiment [1], the inhibition turned out to be 3.3%.

By Kb is commonly meant the affinity of an antagonist, worked out from how it opposes an agonist. Take `CC(=O)N[C@@H](Cc1ccccc1)C(=O)N[C@@H](Cc1ccccc1)C(=O)N[C@@H](Cc1ccccc1)C(=O)N[C@@H](CCCN=C(N)N)C(=O)N[C@@H](CC(C)C)C(=O)N[C@@H](CCCN=C(N)N)C(=O)N[C@@H](CCCN=C(N)N)C(=O)N[C@@H](C)C(=O)N[C@@H](CCCN=C(N)N)C(=O)N1CCC[C@H]1C(=O)N[C@@H](CCCCN)C(N)=O` (Ac-FFFRLRRARPK-NH2): the Kb in experiment [2] was found to be 17 nM.

For orientation: Ki means a dissociation constant, usually derived from enzyme kinetics or from competition with a known ligand. For `CC(=O)N[C@@H](Cc1ccccc1)C(=O)N[C@@H](Cc1ccccc1)C(=O)N[C@@H](Cc1ccccc1)C(=O)N[C@@H](CCCNC(=N)N)C(=O)N[C@@H](CC(C)C)C(=O)N[C@@H](CCCNC(=N)N)C(=O)N[C@@H](CCCNC(=N)N)C(=O)N[C@H](C)C(=O)N[C@@H](CCCNC(=N)N)C(=O)N1CCC[C@H]1C(=O)N[C@@H](CCCCN)C(N)=O` (Ac-FFFRLRR[dA]RPK-NH2), the Ki in experiment [3] was over 5000 nM.
